Laboratory results: the supplement of paper PMC4862054

Assays:
BT-549 [1] = experiment: normalised viability (% of control), CellTiter-Blue; higher = more viable cells (about 100 = DMSO control); details: 1000 nM; incubation time: 72 h
Outline: (§1)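 The reported figure is normalised viability at a single listed concentration of the series. Breast cancer cell lines (20 µl suspension) went onto 384-well plates holding compound in 5 µl medium for 72 h. CellTiter-Blue (2.5 µl, 2 h, 37 °C) was read by fluorescence at 560/590 nm, and each plate was scaled to vehicle at 100 and a positive kill control at 0.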

CAL-148 [2] = experiment: as above; details: 30 nM; incubation time: 72 h
Outline: as §1

MDA-MB-453 [3] = experiment: as above; details: 30 nM; incubation time: 72 h
Outline: as §1

MFM-223 = experiment: as above; details: 1000 nM; incubation time: 72 h
Outline: as §1

Hs578T [4] = experiment: as above; details: 1000 nM; incubation time: 72 h
Outline: as §1

HCC1937 [5] = experiment: as above; details: 1000 nM; incubation time: 72 h
Outline: as §1

MDA-MB-468 [6] = experiment: as above; details: 1000 nM; incubation time: 72 h
Outline: as §1

HCC1599 = experiment: as above; details: 1000 nM; incubation time: 72 h
Outline: as §1

CAL-120 [7] = experiment: as above; details: 1000 nM; incubation time: 72 h
Outline: as §1

MDA-MB-436 [8] = experiment: as above; details: 1000 nM; incubation time: 72 h
Outline: as §1

BT-474 [9] = experiment: as above; details: 1000 nM; incubation time: 72 h
Outline: as §1

SK-BR-3 [10] = experiment: as above; details: 1000 nM; incubation time: 72 h
Outline: as §1

CAL-51 [11] = experiment: as above; details: 30 nM; incubation time: 72 h
Outline: as §1

HCC1143 = experiment: as above; details: 1000 nM; incubation time: 72 h
Outline: as §1

BT-549 [12] = experiment: drug sensitivity score (DSS), CellTiter-Glo (DSS (AUC-based score)); higher = stronger drug effect (viability inhibition or cytotoxicity); extreme values may be limits of the assay; details: incubation time: 72 h
Outline: (§2)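 The drug sensitivity score reflects the area under a fitted dose-response curve. To obtain it, breast cancer cells in 20 µl suspension were seeded into 384-well plates containing compound at 5 concentrations, 10-fold apart over a compound-specific 10,000-fold range, and incubated 72 h. CellTox Green fluorescence (485/520 nm) was read first and CellTiter-Glo luminescence second, after 10 min at room temperature. Each plate was normalised to 0.1 % DMSO and a positive kill control.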

CAL-148 [13] = experiment: as above; details: incubation time: 72 h
Outline: as §2

MDA-MB-468 [14] = experiment: as above; details: incubation time: 72 h
Outline: as §2

CAL-85-1 [15] = experiment: as above; details: incubation time: 72 h
Outline: as §2

BT-474 [16] = experiment: as above; details: incubation time: 72 h
Outline: as §2

SK-BR-3 [17] = experiment: as above; details: incubation time: 72 h
Outline: as §2

MCF-10A [18] = experiment: as above; details: incubation time: 72 h
Outline: as §2

HDQ-P1 = experiment: as above; details: incubation time: 72 h
Outline: as §2

BT-549 [19] = details: 72 h
Outline: (§3)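 Two sequential readouts followed a 72 h incubation of breast cancer cell lines with compound at 5 concentrations in 10-fold steps over a compound-specific 10,000-fold range: CellTox Green fluorescence (485/520 nm) for cell death, then CellTiter-Glo luminescence, after 10 min at room temperature, for viability. Each plate was normalised to 0.1 % DMSO and a positive kill control. Dose-response curves were fitted for EC50, censored at the top concentration.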

MDA-MB-453 [20] = details: 72 h
Outline: as §3

Hs578T [21] = details: 72 h
Outline: as §3

HCC1937 [22] = details: 72 h
Outline: as §3

MDA-MB-468 [23] = details: 72 h
Outline: as §3

CAL-85-1 [24] = details: 72 h
Outline: as §3

CAL-120 [25] = details: 72 h
Outline: as §3

MDA-MB-231 = details: 72 h
Outline: as §3

MDA-MB-436 [26] = details: 72 h
Outline: as §3

BT-474 [27] = details: 72 h
Outline: as §3

SK-BR-3 [28] = details: 72 h
Outline: as §3

MCF-10A [29] = details: 72 h
Outline: as §3

CAL-51 [30] = details: 72 h
Outline: as §3

SMILES | normalised viability (BT-549 [1]) [%] | normalised viability (CAL-148 [2]) [%] | normalised viability (MDA-MB-453 [3]) [%] | normalised viability (MFM-223) [%] | normalised viability (Hs578T [4]) [%] | normalised viability (HCC1937 [5]) [%] | normalised viability (MDA-MB-468 [6]) [%] | normalised viability (HCC1599) [%] | normalised viability (CAL-120 [7]) [%] | normalised viability (MDA-MB-436 [8]) [%] | normalised viability (BT-474 [9]) [%] | normalised viability (SK-BR-3 [10]) [%] | normalised viability (CAL-51 [11]) [%] | normalised viability (HCC1143) [%] | drug sensitivity score (BT-549 [12]) | drug sensitivity score (CAL-148 [13]) | drug sensitivity score (MDA-MB-468 [14]) | drug sensitivity score (CAL-85-1 [15]) | drug sensitivity score (BT-474 [16]) | drug sensitivity score (SK-BR-3 [17]) | drug sensitivity score (MCF-10A [18]) | drug sensitivity score (HDQ-P1) | EC50, CellTiter-Glo (BT-549 [19]) [nM] | EC50, CellTiter-Glo (MDA-MB-453 [20]) [nM] | EC50, CellTiter-Glo (Hs578T [21]) [nM] | EC50, CellTiter-Glo (HCC1937 [22]) [nM] | EC50, CellTiter-Glo (MDA-MB-468 [23]) [nM] | EC50, CellTiter-Glo (CAL-85-1 [24]) [nM] | EC50, CellTiter-Glo (CAL-120 [25]) [nM] | EC50, CellTiter-Glo (MDA-MB-231) [nM] | EC50, CellTiter-Glo (MDA-MB-436 [26]) [nM] | EC50, CellTiter-Glo (BT-474 [27]) [nM] | EC50, CellTiter-Glo (SK-BR-3 [28]) [nM] | EC50, CellTiter-Glo (MCF-10A [29]) [nM] | EC50, CellTiter-Glo (CAL-51 [30]) [nM]
CN1CCN(CCOc2cc(OC3CCOCC3)c3c(Nc4c(Cl)ccc5c4OCO5)ncnc3c2)CC1 [Saracatinib] | 85.9 | 78.7 | 101 | 102 | 93.8 | 85 | 87.2 | 98 | 71.9 | 117 | 85.2 | 90 | 103 | 70.6 | 3.75 | 1.84 | 3.3 | 8.75 | 6.52 | 2.63 | 13.4 | 9.63 | 1600 | 1360 | 2330 | > 10000 | 1840 | 953 | > 10000 | 901 | > 10000 | 2010 | 2120 | 354 | 805
COc1ccc(-c2ccc3c(N4CCOC[C@@H]4C)nc(N4CCOC[C@@H]4C)nc3n2)cc1CO [AZD8055] | 18.7 | 53 | 33.6 | 18 | 23.7 | 32.6 | 29.1 | 46.4 | 13.9 | 32.5 | 26.9 | 13 | 47.5 | 32.5 | 23.9 | 22.8 | 22.2 | 22.2 | 13.7 | 30.3 | 19.3 | 20.9 | 30.8 | 24.6 | 57.5 | 100 | 43.3 | 31.8 | 37.5 | 73.8 | 11.6 | 121 | 7.23 | 61 | 45.4
